According to patent US20230398237A1 (priority 2020, published 2023):

Assays:
[1] = Clearance efficiencies in urine and feces; details: within 24 h post intravenous injection
Description: Then, the urine and feces were quantified based on fluorescence and each standard curve of conjugates were built in control urine and control feces.

[2] = before elimination through the liver; cited from earlier work
[3] = system: serum proteins (fetal bovine serum); assay: Serum protein binding test by agarose gel electrophoresis; type: in vitro ADME; details: 10% FBS, 37° C., 30 min
Protocol: Coomassie brilliant blue 250 (CBB) was used to stain FBS. Color pictures of CBB-stained protein were inserted.
All these samples were analyzed using 2% agarose gel electrophoresis. […] The fluorescence images were taken by Carestream In-vivo FX Pro imaging system under 790 nm/830 nm. Non-invasive fluorescence imaging of body with ICG-PEG conjugates and ex vivo images

[4] = system: organic anion transporter; assay: Probenecid inhibition studies (renal clearance efficiency); type: in vivo, BALB/c mice; details: 200 mg/kg probenecid i.p., urine at 30 min p.i.
Protocol: BALB/c mice were pre-treated by intraperitoneal injection of 200 mg/kg probenecid and control group were treated by PBS. […] The mice were anesthetized under 3% isoflurane for 30 min under steady breath rate of 7-8 times per 15 sec. After 30 min, the urine was collected from bladder and quantified by fluorescence.

Molecule | clearance percentage in feces [1] | time retained in normal renal parenchyma [2] | serum protein binding [3] | effect of probenecid on renal clearance efficiency [4]
CC1(C)C(/C=C/C=C/C=C/C=C2\N(CCCCS(=O)(=O)O)c3ccc4ccccc4c3C2(C)C)=[N+](CCCCS(=O)(=O)[O-])c2ccc3ccccc3c21 [ICG, Indocyanine green] | 85.3 % ID | < 15 min | completely binds protein | 
FITC-inulin |  |  |  | no significant difference
